Patent publication US9890129B2, “Aminoalkylbenzothiazepine derivatives and uses thereof” (CJ Healthcare Corporation, priority 2014, dated 2018)

Test system: SD rats
Assay: Feces excretion time and evaluation of efficiency (barium-containing diet, oral administration)
Format: in vivo, rat
Details: for Feces excretion time (min) @ volume (mg/kg): observed 10 hours
Description: Eight-week-old SD rats were purchased and allowed to adapt to breeding conditions under 12-hour illumination at 24° C. for 7 days. The rats were made to fast for 16 hours before the experimental day, and orally administered on the experimental day with a vehicle (0.5% methylcellulose) and a test material, […], respectively. Thirty minutes after the administration, the rats fed with 3 g of a barium-containing diet were placed into a metabolism cage and observed to record the time required for the barium to be excreted as feces in each rat after being passed through the intestines for 10 hours. Additionally, the percentage of rats that excreted barium-containing feces within 10 hours were calculated, and the results are shown in Table 1 below.

Compound	Percentage of subjects excreting feces within 10 hours (%) (0.1 mg/kg)	Feces excretion time (min) @ volume (mg/kg) (0.1 mg/kg)	Percentage of subjects excreting feces within 10 hours (%) (1 mg/kg)	Feces excretion time (min) @ volume (mg/kg) (1 mg/kg)	Percentage of subjects excreting feces within 10 hours (%) (5 mg/kg)	Feces excretion time (min) @ volume (mg/kg) (5 mg/kg)
CCCCC1(CCCC)CN(c2ccccc2)c2cc(SC)c(CNCC(=O)O)cc2S(=O)(=O)C1 [Example 1, 2-(((3,3-dibutyl-7-methylthio-1,1-dioxido-5-phenyl-2,3,4,5-tetrahydrobenzo[b][1,4]thiazepine-8-yl)methyl)amino)acetic acid]	B @ 0.1 (B: 50-75%)	C @ 0.1 (C: 501-590 min)	A @ 1 (A: 76-100%)	B @ 1 (B: 401-500 min)	A @ 5 (A: 76-100%)	A @ 5 (A: 301-400 min)
CCCCC1(CCCC)CN(c2ccccc2)c2cc(SC)c(CNC(=O)CS(=O)(=O)O)cc2S(=O)(=O)C1 [Example 18, 2-(((3,3-dibutyl-7-methylthio-1,1-dioxido-5-phenyl-2,3,4,5-tetrahydrobenzo[b][1,4]thiazepine-8-yl)methyl)amino)-2-oxoethanesulfonic acid]			B @ 1 (B: 50-75%)	B @ 1 (B: 401-500 min)		
CCCCC1(CCCC)CN(c2ccc(OC)cc2)c2cc(SC)c(CNCC(=O)O)cc2S(=O)(=O)C1 [Example 19, 2-(((3,3-dibutyl-5-(4-methoxyphenyl)-7-methylthio-1,1-dioxido-2,3,4,5-tetrahydrobenzo[b][1,4]thiazepine-8-yl)methyl)amino)acetic acid]			A @ 1 (A: 76-100%)	C @ 1 (C: 501-590 min)	A @ 5 (A: 76-100%)	B @ 5 (B: 401-500 min)
CCCCC1(CCCC)CN(c2ccc(O)cc2)c2cc(SC)c(CNCC(=O)O)cc2S(=O)(=O)C1 [Example 20, 2-(((3,3-dibutyl-5-(4-hydroxyphenyl)-7-methylthio-1,1-dioxido-2,3,4,5-tetrahydrobenzo[b][1,4]thiazepine-8-yl)methyl)amino)acetic acid]	A @ 0.1 (A: 76-100%)	C @ 0.1 (C: 501-590 min)	A @ 1 (A: 76-100%)	B @ 1 (B: 401-500 min)	A @ 5 (A: 76-100%)	A @ 5 (A: 301-400 min)
CCCCC1(CCCC)CN(c2ccc(F)cc2)c2cc(SC)c(CNCC(=O)O)cc2S(=O)(=O)C1 [Example 22, 2-(((3,3-dibutyl-5-(4-fluorophenyl)-7-methylthio-1,1-dioxido-2,3,4,5-tetrahydrobenzo[b][1,4]thiazepine-8-yl)methyl)amino)acetic acid]	A @ 0.1 (A: 76-100%)	B @ 0.1 (B: 401-500 min)	A @ 1 (A: 76-100%)	B @ 1 (B: 401-500 min)	A @ 5 (A: 76-100%)	A @ 5 (A: 301-400 min)
CCCCC1(CCCC)CN(c2ccc(OC)c(F)c2)c2cc(SC)c(CNCC(=O)O)cc2S(=O)(=O)C1 [Example 24, 2-(((3,3-dibutyl-5-(3-fluoro-4-methoxyphenyl)-7-methylthio-1,1-dioxido-2,3,4,5-tetrahydrobenzo[b][1,4]thiazepine-8-yl)methyl)amino)acetic acid]			A @ 1 (A: 76-100%)	C @ 1 (C: 501-590 min)	A @ 5 (A: 76-100%)	A @ 5 (A: 301-400 min)
